These results are taken from ChEMBL document CHEMBL1158873, “Chemistry of Fijian Plants. 13. 1 Floribundal, a Nonglycosidic Bisiridoid, and Six Novel Fatty Esters of -Amyrin from Scaevola floribunda” (J Nat Prod, 1997).

The data set relates to Artemia. Put plainly: Toxicity against brine shrimp. Format: organism-based. As to conditions: in vivo.

The structures appear in SMILES notation.

As for `COC(=O)C[C@@H]1C(C(=O)O[C@H]2C[C@@H]3C(C(=O)OC)=CO[C@@H](O)[C@@H]3[C@H]2C)=CO[C@@H](C)[C@H]1C=O` [FLORIBUNDAL], the Activity entry is listed as “Non-toxic”.
